The values that follow are results of earlier work, collected in patent US20150024055A1, “ENHANCED IMMEDIATE RELEASE FORMULATIONS OF TOPIRAMATE” (Supernus Pharmaceuticals, Inc., priority 2006, published 2015).

The conditions of data set [1]: in vivo.

For `CC1(C)O[C@@H]2[C@@H](CO[C@@]3(COS(N)(=O)=O)OC(C)(C)O[C@@H]23)O1` [Topiramate], the “time to reach peak plasma levels” value in data set [1] is on record as “about two”. Besides, the “solubility in organic solvents” value (acetone, dimethylsulfoxide and ethanol) is listed as “soluble”. In addition, the “solubility in alkaline solutions” value (alkaline solutions containing sodium hydroxide or sodium phosphate) is given as “soluble”. Also, the “solubility of topiramate in water” value (water, room temperature) is “about 9.8 mg/ml”.
